Consider 10 molecules from ChEMBL document CHEMBL5291721, “A preclinical secondary pharmacology resource illuminates target-adverse drug reaction associations of marketed drugs” (Nat Commun, 2023).

For orientation: AC50 means the concentration giving half of the maximal activity seen.

Targets include Melanocortin receptor 4 (Homo sapiens, UniProt P32245); Melanocortin receptor 3 (Homo sapiens, UniProt P41968); Adenosine receptor A2a (Homo sapiens, UniProt P29274); Vasopressin V1a receptor (Homo sapiens, UniProt P37288).
The target of a further experiment is D(1A) dopamine receptor (Homo sapiens, UniProt P21728). The class given is functional, cell-based.
Experiment [1] deals with T1, Amine oxidase [flavin-containing] A (Homo sapiens, UniProt P21397).
T1 sequence (P21397 whole entry): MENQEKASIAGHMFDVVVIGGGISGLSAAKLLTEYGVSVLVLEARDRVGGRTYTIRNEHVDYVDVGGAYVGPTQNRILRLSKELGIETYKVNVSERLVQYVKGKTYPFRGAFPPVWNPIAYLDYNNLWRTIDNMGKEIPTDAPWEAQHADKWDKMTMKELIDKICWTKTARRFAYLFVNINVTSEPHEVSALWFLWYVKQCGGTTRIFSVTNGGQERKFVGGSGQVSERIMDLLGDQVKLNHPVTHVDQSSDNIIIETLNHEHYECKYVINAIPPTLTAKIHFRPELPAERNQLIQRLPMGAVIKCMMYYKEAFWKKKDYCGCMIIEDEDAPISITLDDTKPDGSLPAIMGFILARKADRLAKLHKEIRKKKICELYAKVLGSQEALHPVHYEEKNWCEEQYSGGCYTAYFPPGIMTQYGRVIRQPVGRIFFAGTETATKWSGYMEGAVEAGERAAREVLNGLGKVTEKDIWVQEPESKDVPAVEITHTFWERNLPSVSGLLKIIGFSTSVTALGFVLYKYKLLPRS
The class given is functional.

The target of experiment [2] is T2, 5-hydroxytryptamine receptor 1A (Homo sapiens, UniProt P08908).
T2 sequence (P08908 whole entry): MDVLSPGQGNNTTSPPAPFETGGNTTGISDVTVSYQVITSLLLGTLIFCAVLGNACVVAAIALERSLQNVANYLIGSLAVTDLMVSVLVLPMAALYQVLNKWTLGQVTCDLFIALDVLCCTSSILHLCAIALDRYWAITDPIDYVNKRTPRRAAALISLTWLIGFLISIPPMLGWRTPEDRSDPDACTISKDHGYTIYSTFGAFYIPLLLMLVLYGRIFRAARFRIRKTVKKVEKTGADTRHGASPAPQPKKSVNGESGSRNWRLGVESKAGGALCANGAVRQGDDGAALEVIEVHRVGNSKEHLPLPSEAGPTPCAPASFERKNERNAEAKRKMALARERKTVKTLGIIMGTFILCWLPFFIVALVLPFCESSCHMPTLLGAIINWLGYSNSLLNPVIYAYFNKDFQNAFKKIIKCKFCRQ
The format is functional, cell-based.

Experiment [3] deals with T3, Alpha-2A adrenergic receptor (Homo sapiens, UniProt P08913).
T3 sequence (P08913 whole entry): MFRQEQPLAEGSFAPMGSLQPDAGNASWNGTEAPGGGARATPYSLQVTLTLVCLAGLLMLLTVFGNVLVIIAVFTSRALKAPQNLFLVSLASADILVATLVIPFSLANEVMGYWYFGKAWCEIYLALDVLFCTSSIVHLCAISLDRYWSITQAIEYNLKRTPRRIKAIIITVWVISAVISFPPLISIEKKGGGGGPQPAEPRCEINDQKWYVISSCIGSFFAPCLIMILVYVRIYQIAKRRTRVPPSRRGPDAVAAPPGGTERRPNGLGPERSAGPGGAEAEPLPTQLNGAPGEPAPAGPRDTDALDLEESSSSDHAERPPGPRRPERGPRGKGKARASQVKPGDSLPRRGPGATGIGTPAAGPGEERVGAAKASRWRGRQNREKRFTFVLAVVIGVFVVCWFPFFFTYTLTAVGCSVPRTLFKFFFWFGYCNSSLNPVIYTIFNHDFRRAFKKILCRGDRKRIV
The class given is functional, cell-based.

The target in experiment [4] is T4, Neuropeptide Y receptor type 1 (Homo sapiens, UniProt P25929).
T4 sequence (P25929 whole entry): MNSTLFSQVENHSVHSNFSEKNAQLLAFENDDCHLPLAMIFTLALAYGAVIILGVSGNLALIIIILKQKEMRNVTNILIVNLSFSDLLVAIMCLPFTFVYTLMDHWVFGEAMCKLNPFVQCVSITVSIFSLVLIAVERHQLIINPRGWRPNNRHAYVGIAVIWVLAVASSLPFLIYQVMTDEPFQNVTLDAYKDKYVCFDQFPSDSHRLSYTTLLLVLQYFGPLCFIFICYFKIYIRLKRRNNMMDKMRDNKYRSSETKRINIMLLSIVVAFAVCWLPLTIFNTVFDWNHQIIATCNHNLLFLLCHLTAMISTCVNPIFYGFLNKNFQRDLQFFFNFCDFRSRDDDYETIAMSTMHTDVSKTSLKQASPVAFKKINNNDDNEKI

In experiment [5] the target is 5-hydroxytryptamine receptor 2B (Homo sapiens, UniProt P41595). The class given is functional, cell-based.
The target of experiment [6] is Growth hormone secretagogue receptor type 1 (Homo sapiens, UniProt Q92847).
For experiment [7], the target named is cGMP-inhibited 3',5'-cyclic phosphodiesterase 3A (Homo sapiens, UniProt Q14432). The format is functional.
For experiment [8], the target named is T5, Muscarinic acetylcholine receptor M2 (Homo sapiens, UniProt P08172).
T5 sequence (P08172 whole entry): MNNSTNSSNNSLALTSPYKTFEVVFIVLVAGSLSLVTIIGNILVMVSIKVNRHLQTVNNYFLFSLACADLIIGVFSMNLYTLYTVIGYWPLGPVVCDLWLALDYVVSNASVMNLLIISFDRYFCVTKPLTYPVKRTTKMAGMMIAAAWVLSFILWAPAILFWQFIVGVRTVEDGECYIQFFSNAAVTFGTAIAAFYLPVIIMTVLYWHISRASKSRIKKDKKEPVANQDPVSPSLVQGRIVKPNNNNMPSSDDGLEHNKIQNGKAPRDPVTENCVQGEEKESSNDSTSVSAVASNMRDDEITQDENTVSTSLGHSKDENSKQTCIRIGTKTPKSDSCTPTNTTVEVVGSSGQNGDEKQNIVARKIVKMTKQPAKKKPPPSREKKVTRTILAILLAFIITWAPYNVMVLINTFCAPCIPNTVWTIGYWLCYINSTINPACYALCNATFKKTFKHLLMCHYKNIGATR
The format is functional, cell-based.
Also: assay procedure not described here.

Chain of Melanocortin receptor 4 (P32245 whole entry): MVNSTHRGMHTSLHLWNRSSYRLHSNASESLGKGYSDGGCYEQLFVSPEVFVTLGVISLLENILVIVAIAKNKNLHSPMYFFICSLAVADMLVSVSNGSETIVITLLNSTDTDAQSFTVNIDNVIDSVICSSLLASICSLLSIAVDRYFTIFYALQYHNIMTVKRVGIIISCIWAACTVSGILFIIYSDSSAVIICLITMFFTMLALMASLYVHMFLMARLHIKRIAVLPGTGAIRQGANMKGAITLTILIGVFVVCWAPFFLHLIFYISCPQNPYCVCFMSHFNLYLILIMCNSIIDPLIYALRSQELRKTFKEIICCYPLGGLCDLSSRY
Chain of cGMP-inhibited 3',5'-cyclic phosphodiesterase 3A (Q14432 whole entry): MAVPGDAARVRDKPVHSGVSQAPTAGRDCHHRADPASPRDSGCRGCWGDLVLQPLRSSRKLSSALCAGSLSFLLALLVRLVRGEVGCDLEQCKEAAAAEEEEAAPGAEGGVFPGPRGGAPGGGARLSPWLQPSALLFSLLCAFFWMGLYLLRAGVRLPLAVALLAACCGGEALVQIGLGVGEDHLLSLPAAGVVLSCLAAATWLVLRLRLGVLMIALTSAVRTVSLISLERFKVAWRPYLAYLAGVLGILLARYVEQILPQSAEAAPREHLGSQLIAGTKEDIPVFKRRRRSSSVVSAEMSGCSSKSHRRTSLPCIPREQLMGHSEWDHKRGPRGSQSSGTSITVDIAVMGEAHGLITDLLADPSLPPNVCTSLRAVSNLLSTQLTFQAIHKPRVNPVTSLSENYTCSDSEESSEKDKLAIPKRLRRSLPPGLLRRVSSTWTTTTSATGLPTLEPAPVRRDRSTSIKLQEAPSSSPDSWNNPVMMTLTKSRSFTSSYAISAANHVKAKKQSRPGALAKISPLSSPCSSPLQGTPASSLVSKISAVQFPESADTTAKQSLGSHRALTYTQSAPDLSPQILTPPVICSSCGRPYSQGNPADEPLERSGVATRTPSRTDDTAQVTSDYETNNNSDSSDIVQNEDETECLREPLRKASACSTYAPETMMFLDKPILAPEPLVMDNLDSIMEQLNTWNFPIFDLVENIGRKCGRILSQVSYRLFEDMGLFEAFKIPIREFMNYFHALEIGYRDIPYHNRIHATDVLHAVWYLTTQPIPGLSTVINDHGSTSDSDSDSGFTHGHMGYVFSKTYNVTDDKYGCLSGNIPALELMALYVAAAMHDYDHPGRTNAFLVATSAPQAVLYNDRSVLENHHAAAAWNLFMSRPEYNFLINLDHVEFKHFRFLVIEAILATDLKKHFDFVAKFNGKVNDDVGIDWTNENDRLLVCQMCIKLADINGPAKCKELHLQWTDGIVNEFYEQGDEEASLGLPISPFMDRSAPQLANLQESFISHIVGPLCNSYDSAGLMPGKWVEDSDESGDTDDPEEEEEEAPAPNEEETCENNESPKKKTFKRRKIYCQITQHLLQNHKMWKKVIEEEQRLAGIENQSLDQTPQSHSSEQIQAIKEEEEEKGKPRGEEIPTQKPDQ
Chain of Vasopressin V1a receptor (P37288 whole entry): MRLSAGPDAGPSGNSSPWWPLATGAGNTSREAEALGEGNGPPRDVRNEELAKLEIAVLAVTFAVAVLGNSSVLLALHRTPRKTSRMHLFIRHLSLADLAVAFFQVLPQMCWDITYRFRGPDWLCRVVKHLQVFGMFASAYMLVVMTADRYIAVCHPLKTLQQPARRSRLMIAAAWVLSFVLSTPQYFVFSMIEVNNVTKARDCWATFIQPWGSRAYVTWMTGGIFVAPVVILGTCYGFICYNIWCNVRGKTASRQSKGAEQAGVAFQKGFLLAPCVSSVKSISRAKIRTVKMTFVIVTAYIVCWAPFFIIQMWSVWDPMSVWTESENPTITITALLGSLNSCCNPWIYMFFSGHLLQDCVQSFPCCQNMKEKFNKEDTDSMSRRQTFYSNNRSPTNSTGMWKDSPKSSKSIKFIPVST
Chain of D(1A) dopamine receptor (P21728 whole entry): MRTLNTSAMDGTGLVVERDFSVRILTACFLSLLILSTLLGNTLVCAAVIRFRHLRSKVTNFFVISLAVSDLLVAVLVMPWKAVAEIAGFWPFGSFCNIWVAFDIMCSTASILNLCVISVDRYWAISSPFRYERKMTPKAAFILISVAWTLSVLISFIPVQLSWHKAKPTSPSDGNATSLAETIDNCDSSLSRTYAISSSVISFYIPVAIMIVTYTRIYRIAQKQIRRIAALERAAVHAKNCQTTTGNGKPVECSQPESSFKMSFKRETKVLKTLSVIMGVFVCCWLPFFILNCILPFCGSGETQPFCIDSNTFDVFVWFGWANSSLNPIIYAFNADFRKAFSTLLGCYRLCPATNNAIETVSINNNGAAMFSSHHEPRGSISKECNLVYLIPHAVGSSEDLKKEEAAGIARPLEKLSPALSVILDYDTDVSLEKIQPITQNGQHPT
Chain of Melanocortin receptor 3 (P41968 whole entry): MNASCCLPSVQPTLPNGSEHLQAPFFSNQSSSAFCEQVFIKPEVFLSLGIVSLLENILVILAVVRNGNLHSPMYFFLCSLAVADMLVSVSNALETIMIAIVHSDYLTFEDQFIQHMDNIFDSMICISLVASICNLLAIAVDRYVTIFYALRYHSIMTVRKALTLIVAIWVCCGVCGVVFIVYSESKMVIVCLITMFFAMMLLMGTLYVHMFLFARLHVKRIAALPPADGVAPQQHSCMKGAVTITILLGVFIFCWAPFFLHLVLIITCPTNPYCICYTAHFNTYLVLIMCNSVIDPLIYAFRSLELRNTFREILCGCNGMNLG
Chain of Growth hormone secretagogue receptor type 1 (Q92847 whole entry): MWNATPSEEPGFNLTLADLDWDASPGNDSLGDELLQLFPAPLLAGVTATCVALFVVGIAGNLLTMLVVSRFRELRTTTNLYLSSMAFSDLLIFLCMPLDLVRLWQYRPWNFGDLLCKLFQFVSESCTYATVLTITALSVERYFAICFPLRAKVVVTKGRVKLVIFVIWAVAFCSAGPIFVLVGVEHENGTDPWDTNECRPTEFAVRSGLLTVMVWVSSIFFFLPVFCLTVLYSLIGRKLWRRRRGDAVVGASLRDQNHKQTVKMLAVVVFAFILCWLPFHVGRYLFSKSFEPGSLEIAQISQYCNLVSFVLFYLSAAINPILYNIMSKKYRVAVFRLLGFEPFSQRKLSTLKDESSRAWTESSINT
Chain of Adenosine receptor A2a (P29274 whole entry): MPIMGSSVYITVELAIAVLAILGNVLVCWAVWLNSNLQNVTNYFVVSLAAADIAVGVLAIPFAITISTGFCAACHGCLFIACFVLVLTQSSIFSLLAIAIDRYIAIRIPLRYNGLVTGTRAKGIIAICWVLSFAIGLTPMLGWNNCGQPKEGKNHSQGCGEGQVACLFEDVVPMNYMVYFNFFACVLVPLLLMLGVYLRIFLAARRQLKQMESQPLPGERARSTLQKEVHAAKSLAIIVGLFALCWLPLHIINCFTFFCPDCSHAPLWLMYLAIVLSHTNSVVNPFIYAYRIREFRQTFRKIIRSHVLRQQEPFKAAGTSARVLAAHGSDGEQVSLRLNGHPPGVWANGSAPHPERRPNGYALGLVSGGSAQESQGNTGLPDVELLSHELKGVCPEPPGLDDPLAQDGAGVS
Chain of 5-hydroxytryptamine receptor 2B (P41595 whole entry): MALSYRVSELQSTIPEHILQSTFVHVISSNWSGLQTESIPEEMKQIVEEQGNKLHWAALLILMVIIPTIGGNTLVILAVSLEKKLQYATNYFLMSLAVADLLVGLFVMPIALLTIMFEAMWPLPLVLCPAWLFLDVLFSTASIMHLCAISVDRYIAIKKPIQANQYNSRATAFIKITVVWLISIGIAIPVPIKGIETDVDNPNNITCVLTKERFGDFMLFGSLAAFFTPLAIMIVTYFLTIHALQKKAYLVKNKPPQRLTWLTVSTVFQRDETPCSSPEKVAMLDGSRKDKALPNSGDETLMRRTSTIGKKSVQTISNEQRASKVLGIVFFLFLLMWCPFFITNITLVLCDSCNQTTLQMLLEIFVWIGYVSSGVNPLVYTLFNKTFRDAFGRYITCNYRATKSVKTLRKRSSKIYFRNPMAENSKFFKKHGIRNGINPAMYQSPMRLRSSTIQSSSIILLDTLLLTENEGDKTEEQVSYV

In the case of `CN1CCC(=C2c3ccccc3CC(=O)c3sccc32)CC1` [KETOTIFEN], the half-maximal activity concentration (AC50) (on Melanocortin receptor 4; on Melanocortin receptor 3; on D(1A) dopamine receptor; in experiment [1]; in experiment [2]; in experiment [3]) was greater than 10 µM throughout. Further, the AC50 in [4] was greater than 10 µM; in experiment [5], greater than 10 µM; at Adenosine receptor A2a it was greater than 10 µM; in [6], greater than 10 µM; in experiment [7], greater than 30 µM; at Vasopressin V1a receptor, greater than 10 µM. In addition, in experiment [8], the half-maximal activity concentration (AC50) is greater than 10 µM.
As to `CCN(CC)CCCN(c1ccccc1)C1Cc2ccccc2C1` [APRINDINE], the AC50 on Melanocortin receptor 4 is greater than 10 µM; on Melanocortin receptor 3 it was greater than 30 µM; at D(1A) dopamine receptor it was greater than 30 µM; in experiment [1] it was greater than 30 µM; in experiment [2], greater than 30 µM; in experiment [3], greater than 30 µM. In addition, the AC50 was greater than 30 µM in [4]; greater than 30 µM in experiment [5]; greater than 30 µM on Adenosine receptor A2a; 15 µM in experiment [6]; greater than 30 µM in [7]; greater than 30 µM on Vasopressin V1a receptor. Further, in experiment [8], the AC50 is greater than 30 µM.
In the case of `Cc1cccc(Nc2ccncc2S(=O)(=O)NC(=O)NC(C)C)c1` [TORSEMIDE], the AC50 is greater than 30 µM at Melanocortin receptor 4; greater than 30 µM at Melanocortin receptor 3; greater than 10 µM on D(1A) dopamine receptor; greater than 10 µM in experiment [1]; greater than 10 µM in [2]; greater than 10 µM in experiment [3]. Moreover, the half-maximal activity concentration (AC50) in experiment [4] was greater than 30 µM; in [5], greater than 10 µM; on Adenosine receptor A2a, greater than 30 µM; in [6], greater than 30 µM; in experiment [7] it was greater than 30 µM; on Vasopressin V1a receptor it was greater than 30 µM. In addition, the half-maximal activity concentration (AC50) in experiment [8] was greater than 10 µM.
As for `CCC1(CC)C(=O)NC(=O)N(C)C1=O` [METHARBITAL], the AC50 (at Melanocortin receptor 4; at Melanocortin receptor 3; at D(1A) dopamine receptor; in experiment [1]; in experiment [2]; in experiment [3]) was greater than 10 µM in each case. Moreover, the AC50 in experiment [4] is greater than 10 µM; in experiment [5], greater than 10 µM; at Adenosine receptor A2a it was greater than 10 µM; in experiment [6] it was greater than 10 µM; in experiment [7] it was greater than 30 µM; on Vasopressin V1a receptor it was greater than 10 µM. This molecule also displayed a half-maximal activity concentration (AC50) in experiment [8] greater than 10 µM.
Regarding `CC(=O)OCC1=C(C(=O)O)N2C(=O)[C@@H](NC(=O)CSc3ccncc3)[C@H]2SC1` [CEPHAPIRIN], the half-maximal activity concentration (AC50) (at Melanocortin receptor 4; at Melanocortin receptor 3; at D(1A) dopamine receptor; in experiment [1]; in experiment [2]; in [3]) was greater than 10 µM throughout. The half-maximal activity concentration (AC50) is greater than 10 µM in [4]; greater than 10 µM in [5]; greater than 10 µM at Adenosine receptor A2a; greater than 10 µM in experiment [6]; greater than 30 µM in [7]; greater than 10 µM on Vasopressin V1a receptor. In experiment [8], this molecule came in with a concentration at half-maximal activity (AC50) greater than 10 µM.
Regarding `COc1ccc2c3c1O[C@H]1C(=O)CC[C@H]4[C@@H](C2)N(C)CC[C@]314` [HYDROCODONE], the AC50 at Melanocortin receptor 4 was greater than 30 µM; on Melanocortin receptor 3, greater than 30 µM; at D(1A) dopamine receptor, greater than 10 µM; in experiment [1], greater than 10 µM; in [2], greater than 10 µM; in experiment [3], greater than 10 µM. Also, the AC50 in [4] is greater than 30 µM; in experiment [5], greater than 10 µM; at Adenosine receptor A2a, greater than 30 µM; in [6] it was greater than 30 µM; in experiment [7] it was greater than 30 µM; at Vasopressin V1a receptor, greater than 10 µM. This molecule had a half-maximal activity concentration (AC50) in [8] greater than 10 µM.
For `O=C(C[S+]([O-])Cc1ccco1)NC/C=C\COc1cc(CN2CCCCC2)ccn1` (stereo not given) [LAFUTIDINE], the half-maximal activity concentration (AC50) was greater than 10 µM on Melanocortin receptor 4; greater than 10 µM on Melanocortin receptor 3; greater than 10 µM on D(1A) dopamine receptor; greater than 10 µM in experiment [1]; greater than 30 µM in experiment [2]; greater than 10 µM in experiment [3]. For the same molecule, the AC50 is greater than 10 µM in experiment [4]; greater than 10 µM in experiment [5]; greater than 10 µM on Adenosine receptor A2a; greater than 10 µM in [6]; greater than 30 µM in experiment [7]; greater than 10 µM at Vasopressin V1a receptor. The AC50 in [8] was greater than 10 µM.
As for `CN1C2CCCC1CC(NC(=O)c1nn(C)c3ccccc13)C2` (stereo not given) [GRANISETRON], the concentration at half-maximal activity (AC50) on Melanocortin receptor 4 is greater than 30 µM; at Melanocortin receptor 3 it was greater than 30 µM; on D(1A) dopamine receptor, greater than 10 µM; in experiment [1] it was greater than 10 µM; in experiment [2] it was greater than 10 µM; in experiment [3] it was greater than 10 µM. Further, the AC50 is greater than 30 µM in [4]; greater than 10 µM in experiment [5]; greater than 30 µM on Adenosine receptor A2a; greater than 30 µM in [6]; greater than 10 µM in experiment [7]; greater than 10 µM at Vasopressin V1a receptor. For the same molecule, the AC50 in [8] is greater than 10 µM.
`COc1ccc(C(Cl)=C(c2ccc(OC)cc2)c2ccc(OC)cc2)cc1` [CHLOROTRIANISENE]: the AC50 on Melanocortin receptor 4 was greater than 10 µM; on Melanocortin receptor 3 it was greater than 30 µM; at D(1A) dopamine receptor it was greater than 30 µM; in experiment [1] it was greater than 30 µM; in [2] it was greater than 30 µM; in [3] it was greater than 30 µM. Also, the AC50 (in experiment [4]; in experiment [5]; on Adenosine receptor A2a; in experiment [6]; in experiment [7]; at Vasopressin V1a receptor) was greater than 30 µM each time. For the same molecule, in experiment [8], the AC50 is greater than 30 µM.
With `Nc1nc(Cl)nc2c1ncn2[C@@H]1O[C@H](CO)[C@@H](O)[C@@H]1F` [CLOFARABINE], the AC50 at Melanocortin receptor 4 is greater than 30 µM; on Melanocortin receptor 3, greater than 30 µM; at D(1A) dopamine receptor, greater than 30 µM; in experiment [1], greater than 30 µM; in experiment [2] it was greater than 30 µM; in experiment [3], greater than 10 µM. Further, the concentration at half-maximal activity (AC50) in experiment [4] is greater than 30 µM; in experiment [5] it was greater than 30 µM; at Adenosine receptor A2a, 22.1 µM; in experiment [6] it was greater than 30 µM; in experiment [7], 6.4 µM; at Vasopressin V1a receptor, greater than 30 µM. The molecule further displayed an AC50 in experiment [8] greater than 10 µM.
